From publication PMC8213057, “Targeting ALK2: An Open Science Approach to Developing Therapeutics for the Treatment of Diffuse Intrinsic Pontine Glioma” (Journal of Medicinal Chemistry, 2020)
Where “and” joins values, the source holds several entries; their conditions need not be identical. Equal entries are not always repeated.

Key:
[1] = target: STK16 (Homo sapiens, UniProt O75716); assay: biochemical; conditions: read-out: % enzyme activity, 1 μM; Run 1, Run 2
[2] = tested on: ALK4/ACVR1B
[3] = target: PLK1 (Homo sapiens, UniProt P53350); assay: biochemical; conditions: read-out: % enzyme activity, 1 μM; Run 1, Run 2
PLK1, sequence (P53350 whole entry): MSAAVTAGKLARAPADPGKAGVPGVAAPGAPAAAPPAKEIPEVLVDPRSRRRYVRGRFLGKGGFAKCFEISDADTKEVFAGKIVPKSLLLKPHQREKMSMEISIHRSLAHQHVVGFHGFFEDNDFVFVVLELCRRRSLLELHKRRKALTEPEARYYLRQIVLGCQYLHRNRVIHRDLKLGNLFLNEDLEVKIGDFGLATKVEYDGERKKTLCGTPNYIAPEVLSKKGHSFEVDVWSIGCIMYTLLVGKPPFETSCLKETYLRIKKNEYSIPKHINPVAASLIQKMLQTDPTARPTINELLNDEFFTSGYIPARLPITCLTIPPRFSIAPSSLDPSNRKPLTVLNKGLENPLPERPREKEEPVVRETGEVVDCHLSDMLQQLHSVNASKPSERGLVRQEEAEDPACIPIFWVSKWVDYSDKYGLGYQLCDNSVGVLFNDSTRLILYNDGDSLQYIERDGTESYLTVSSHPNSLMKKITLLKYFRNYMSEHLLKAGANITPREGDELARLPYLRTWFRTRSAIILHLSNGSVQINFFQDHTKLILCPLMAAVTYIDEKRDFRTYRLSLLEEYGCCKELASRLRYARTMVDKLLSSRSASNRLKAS

[4] = target: OSR1/OXSR1 (Homo sapiens, UniProt O95747); assay: biochemical; conditions: read-out: % enzyme activity, 1 μM; Run 1, Run 2
[5] = target: AURORA B (Homo sapiens, UniProt Q96GD4); conditions: 1 μM; Run 1, Run 2
AURORA B, sequence (Q96GD4 whole entry): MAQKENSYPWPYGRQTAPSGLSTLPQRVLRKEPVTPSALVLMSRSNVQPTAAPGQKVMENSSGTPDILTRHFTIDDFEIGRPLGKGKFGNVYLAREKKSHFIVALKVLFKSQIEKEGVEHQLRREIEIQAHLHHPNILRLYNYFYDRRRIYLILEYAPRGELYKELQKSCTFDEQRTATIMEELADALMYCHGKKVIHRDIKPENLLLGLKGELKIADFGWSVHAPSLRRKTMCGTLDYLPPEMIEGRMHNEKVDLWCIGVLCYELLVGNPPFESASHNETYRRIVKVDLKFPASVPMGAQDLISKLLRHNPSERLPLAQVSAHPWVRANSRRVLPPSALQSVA

[6] = target: FER (Homo sapiens, UniProt P16591); assay: biochemical; conditions: read-out: % enzyme activity, 1 μM; Run 1, Run 2
[7] = target: CK1epsilon (Homo sapiens, UniProt P49674); conditions: 1 μM; Run 1, Run 2
[8] = target: HIPK3 (Homo sapiens, UniProt Q9H422); conditions: 1 μM; Run 1, Run 2
[9] = target: AKT3 (Homo sapiens, UniProt Q9Y243); assay: biochemical; conditions: read-out: % enzyme activity, 1 μM; Run 1, Run 2
[10] = target: T1, NEK9 (Homo sapiens, UniProt Q8TD19); conditions: 1 μM; Run 1, Run 2
T1 sequence (Q8TD19 1-979): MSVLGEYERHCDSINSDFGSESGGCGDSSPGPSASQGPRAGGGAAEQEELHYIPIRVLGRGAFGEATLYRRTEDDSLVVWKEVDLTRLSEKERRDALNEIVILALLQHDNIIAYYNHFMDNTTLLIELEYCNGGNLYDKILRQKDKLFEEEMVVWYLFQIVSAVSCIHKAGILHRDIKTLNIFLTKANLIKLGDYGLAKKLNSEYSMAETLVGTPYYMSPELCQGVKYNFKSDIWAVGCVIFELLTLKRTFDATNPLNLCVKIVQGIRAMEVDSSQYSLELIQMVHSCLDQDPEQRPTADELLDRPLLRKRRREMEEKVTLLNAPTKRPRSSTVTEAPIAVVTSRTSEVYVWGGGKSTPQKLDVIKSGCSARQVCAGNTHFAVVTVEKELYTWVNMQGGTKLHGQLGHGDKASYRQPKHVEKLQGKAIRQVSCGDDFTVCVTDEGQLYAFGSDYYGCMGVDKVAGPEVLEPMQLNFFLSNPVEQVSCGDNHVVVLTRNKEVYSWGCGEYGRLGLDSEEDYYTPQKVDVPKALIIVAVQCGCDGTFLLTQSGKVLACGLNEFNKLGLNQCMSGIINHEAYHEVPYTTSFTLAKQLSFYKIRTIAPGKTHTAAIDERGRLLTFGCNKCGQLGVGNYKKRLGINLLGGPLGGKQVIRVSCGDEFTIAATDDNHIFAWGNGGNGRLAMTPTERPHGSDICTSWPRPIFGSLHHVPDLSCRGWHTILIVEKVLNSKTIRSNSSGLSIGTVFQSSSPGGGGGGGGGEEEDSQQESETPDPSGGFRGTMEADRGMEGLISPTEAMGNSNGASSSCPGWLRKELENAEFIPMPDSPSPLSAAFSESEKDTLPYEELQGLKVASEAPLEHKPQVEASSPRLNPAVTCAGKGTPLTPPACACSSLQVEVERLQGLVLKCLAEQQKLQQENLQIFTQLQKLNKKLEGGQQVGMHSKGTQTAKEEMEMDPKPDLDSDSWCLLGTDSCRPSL

[11] = target: T2, PKMYT1 (Homo sapiens, UniProt Q99640); assay: biochemical; conditions: read-out: % enzyme activity, 1 μM; Run 1, Run 2
T2 sequence (Q99640 1-499): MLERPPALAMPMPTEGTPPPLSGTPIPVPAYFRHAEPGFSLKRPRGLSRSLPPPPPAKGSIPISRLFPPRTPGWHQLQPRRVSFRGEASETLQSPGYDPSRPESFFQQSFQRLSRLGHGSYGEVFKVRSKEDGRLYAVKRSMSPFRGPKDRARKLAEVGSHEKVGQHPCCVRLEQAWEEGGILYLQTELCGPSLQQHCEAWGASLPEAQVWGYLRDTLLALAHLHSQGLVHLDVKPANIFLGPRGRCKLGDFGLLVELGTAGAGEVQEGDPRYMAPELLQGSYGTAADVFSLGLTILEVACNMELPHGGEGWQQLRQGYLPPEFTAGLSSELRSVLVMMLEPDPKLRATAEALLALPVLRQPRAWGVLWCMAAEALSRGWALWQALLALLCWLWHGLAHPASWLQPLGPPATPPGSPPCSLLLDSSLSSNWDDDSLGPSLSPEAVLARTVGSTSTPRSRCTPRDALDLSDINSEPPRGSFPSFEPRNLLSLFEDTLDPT

[12] = target: MST4 (Homo sapiens, UniProt Q9P289); assay: biochemical; conditions: read-out: % enzyme activity, 1 μM; Run 1, Run 2
[13] = target: T3, TNIK (Homo sapiens, UniProt Q9UKE5); assay: 375-member kinase panel; format: biochemical; conditions: Run 1, Run 2; for % enzyme activity: 1 μM
T3 construct: purchased Reaction Biology Corporation
T3 sequence (Q9UKE5 whole entry): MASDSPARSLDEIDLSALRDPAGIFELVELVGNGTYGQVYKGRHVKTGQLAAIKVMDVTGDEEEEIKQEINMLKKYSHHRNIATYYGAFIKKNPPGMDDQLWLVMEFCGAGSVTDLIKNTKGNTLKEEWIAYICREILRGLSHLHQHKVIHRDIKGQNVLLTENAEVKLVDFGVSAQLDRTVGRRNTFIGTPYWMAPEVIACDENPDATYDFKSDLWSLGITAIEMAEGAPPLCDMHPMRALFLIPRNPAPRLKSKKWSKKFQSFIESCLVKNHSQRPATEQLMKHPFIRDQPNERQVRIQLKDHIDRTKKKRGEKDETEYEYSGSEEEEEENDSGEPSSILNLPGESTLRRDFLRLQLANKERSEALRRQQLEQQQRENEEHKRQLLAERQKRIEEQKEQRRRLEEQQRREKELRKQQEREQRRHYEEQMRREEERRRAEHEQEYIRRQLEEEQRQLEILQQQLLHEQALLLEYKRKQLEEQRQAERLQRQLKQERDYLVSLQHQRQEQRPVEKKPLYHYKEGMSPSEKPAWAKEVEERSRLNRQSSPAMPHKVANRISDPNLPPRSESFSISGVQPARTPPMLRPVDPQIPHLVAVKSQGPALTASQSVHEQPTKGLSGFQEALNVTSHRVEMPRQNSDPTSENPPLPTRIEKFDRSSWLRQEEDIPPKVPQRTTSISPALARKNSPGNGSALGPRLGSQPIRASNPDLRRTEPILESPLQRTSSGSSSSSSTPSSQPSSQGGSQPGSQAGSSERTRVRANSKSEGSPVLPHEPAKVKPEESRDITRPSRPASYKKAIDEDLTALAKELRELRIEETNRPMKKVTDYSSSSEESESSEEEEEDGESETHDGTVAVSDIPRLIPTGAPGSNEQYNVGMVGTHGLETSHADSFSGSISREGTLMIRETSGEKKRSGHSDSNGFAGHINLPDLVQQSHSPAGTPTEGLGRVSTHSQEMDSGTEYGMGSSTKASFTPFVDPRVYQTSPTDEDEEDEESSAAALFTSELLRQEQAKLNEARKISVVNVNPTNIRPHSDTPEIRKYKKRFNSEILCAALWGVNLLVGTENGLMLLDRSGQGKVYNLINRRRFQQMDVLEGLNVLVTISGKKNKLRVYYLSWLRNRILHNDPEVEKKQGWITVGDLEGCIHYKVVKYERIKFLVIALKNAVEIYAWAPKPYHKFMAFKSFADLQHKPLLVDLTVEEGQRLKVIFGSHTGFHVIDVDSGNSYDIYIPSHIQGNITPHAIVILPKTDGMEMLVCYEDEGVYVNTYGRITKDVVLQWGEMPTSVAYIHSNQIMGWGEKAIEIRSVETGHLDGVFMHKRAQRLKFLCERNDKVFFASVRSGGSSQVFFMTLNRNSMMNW

[14] = target: RSK4 (Homo sapiens, UniProt Q9UK32); conditions: 1 μM; Run 1, Run 2
RSK4, sequence (Q9UK32 whole entry): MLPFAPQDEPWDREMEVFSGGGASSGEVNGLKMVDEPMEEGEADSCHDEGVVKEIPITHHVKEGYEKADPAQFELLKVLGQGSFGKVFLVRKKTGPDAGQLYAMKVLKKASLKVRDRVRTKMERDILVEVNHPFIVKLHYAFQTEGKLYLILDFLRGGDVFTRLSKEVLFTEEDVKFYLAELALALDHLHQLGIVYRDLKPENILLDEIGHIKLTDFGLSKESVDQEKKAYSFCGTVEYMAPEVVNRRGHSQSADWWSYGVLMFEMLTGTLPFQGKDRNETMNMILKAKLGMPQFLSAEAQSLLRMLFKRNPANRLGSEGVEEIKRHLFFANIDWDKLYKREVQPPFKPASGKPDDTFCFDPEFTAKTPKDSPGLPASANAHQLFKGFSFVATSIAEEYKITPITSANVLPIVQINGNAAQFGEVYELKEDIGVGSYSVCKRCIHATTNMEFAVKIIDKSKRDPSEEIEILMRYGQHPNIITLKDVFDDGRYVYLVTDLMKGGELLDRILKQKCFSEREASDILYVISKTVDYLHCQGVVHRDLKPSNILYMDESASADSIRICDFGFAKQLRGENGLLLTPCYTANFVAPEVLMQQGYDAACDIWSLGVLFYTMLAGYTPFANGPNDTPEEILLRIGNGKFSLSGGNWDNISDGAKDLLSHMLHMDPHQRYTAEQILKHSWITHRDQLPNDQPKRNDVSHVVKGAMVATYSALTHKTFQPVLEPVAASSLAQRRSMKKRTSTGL

[15] = target: T4, NEK3 (Homo sapiens, UniProt P51956); conditions: 1 μM; Run 1, Run 2
T4 sequence (P51956 1-506): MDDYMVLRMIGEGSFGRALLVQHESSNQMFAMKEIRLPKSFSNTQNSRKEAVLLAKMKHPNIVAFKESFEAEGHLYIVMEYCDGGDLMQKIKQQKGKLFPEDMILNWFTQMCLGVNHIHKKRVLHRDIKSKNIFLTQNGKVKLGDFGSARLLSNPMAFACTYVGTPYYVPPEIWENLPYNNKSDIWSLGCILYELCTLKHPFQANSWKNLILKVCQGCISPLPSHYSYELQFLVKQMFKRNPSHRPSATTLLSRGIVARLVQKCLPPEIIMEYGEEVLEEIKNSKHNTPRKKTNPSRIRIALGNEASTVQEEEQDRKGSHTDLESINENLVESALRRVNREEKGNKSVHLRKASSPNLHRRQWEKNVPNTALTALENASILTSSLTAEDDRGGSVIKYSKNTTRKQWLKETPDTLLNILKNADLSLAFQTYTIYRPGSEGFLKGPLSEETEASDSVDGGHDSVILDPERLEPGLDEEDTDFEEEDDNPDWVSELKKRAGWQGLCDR

[16] = target: CDK4/cyclin D3 (Homo sapiens, UniProt P11802); conditions: 1 μM; Run 1, Run 2
CDK4/cyclin D3, sequence (P11802 whole entry): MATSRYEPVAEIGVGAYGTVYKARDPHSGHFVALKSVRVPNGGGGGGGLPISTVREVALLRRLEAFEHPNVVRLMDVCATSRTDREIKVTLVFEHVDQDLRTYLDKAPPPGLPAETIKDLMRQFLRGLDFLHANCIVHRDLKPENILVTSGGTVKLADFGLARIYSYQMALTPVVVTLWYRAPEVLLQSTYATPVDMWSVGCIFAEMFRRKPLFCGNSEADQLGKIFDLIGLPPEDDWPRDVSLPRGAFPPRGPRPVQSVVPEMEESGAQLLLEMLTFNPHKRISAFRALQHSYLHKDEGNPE
CDK4/cyclin D3, sequence (P30281 whole entry partner): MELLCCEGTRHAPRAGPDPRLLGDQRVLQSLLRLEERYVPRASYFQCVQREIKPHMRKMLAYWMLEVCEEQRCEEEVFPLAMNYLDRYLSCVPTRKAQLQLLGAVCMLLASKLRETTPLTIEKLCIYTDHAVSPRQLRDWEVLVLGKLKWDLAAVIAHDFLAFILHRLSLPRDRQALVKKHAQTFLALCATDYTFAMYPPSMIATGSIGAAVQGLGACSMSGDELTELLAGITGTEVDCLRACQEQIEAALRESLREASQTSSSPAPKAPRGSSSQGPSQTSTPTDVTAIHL

[17] = target: PLK2 (Homo sapiens, UniProt Q9NYY3); conditions: 1 μM; Run 1, Run 2
PLK2, sequence (Q9NYY3 whole entry): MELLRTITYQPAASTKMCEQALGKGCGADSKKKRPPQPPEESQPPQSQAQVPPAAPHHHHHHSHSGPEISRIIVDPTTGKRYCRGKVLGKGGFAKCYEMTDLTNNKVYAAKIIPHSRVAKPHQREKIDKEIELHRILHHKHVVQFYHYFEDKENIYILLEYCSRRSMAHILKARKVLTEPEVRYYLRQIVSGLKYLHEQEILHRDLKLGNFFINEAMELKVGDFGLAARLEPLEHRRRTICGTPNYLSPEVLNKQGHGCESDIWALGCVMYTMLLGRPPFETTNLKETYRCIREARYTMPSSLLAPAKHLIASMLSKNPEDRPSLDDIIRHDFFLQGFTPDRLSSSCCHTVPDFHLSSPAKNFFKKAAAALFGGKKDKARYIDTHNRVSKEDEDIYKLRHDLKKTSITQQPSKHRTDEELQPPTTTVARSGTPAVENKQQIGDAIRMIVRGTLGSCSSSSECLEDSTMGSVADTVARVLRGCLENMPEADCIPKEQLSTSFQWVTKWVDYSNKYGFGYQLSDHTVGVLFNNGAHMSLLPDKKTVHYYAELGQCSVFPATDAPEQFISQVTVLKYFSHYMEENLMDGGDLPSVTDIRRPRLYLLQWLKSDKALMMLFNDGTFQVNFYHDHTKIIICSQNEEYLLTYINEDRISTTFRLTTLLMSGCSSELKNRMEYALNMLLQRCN

STK16, sequence (O75716 whole entry): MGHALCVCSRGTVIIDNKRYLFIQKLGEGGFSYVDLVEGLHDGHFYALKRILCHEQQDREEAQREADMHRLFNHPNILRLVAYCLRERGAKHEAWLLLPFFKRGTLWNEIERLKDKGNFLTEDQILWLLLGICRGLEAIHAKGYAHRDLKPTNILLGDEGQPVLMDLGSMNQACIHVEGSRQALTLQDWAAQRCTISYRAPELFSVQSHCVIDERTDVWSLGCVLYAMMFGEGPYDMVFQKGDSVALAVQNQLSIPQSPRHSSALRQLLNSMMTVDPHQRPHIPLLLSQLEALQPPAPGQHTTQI

Structure (SMILES) | remaining activity at 1 µM [1] | % enzyme activity at 1 μM [2] | remaining activity at 1 µM [3] | remaining activity at 1 µM [4] | % enzyme activity [5] | remaining activity at 1 µM [6] | % enzyme activity [7] | % enzyme activity [8] | remaining activity at 1 µM [9] | % enzyme activity [10] | remaining activity at 1 µM [11] | remaining activity at 1 µM [12] | % enzyme activity [13] | % enzyme activity [14] | % enzyme activity [15] | % enzyme activity [16] | % enzyme activity [17] | remaining activity at 1 µM ([13]; read-out: % enzyme activity, 1 μM)
COc1cc(-c2cncc(-c3ccc(N4CCN(C)CC4)cc3)c2C)cc(F)c1C(N)=O [Compound 26a, 2-Fluoro-6-methoxy-4-(4-methyl-5-(4-(4-methylpiperazin-1-yl)phenyl)pyridin-3-yl)benzamide] | 107% | 68.8% | 92.4% | 93.4% | 100.58% | 89.2% | 93.07% | 97.73% | 95% | 91.72% | 101% | 86.9% | -0.77% and -2.62% | 95.64% | 86.84% | 96.96% | 97.24% | 
COc1cc(-c2cncc(-c3ccc(N4C[C@@H](C)N(C)[C@@H](C)C4)cc3)c2C)cc(F)c1C(N)=O [Compound 26c, 2-Fluoro-6-methoxy-4-(4-methyl-5-(4-((3R,5S)-3,4,5-trimethylpiperazin-1-yl)phenyl)pyridin-3-yl)benzamide] | 101% | 82.4% and 81.7% | 92.7% | 95% | 104.62% | 86% | 90.08% | 89.08% | 98.7% | 93.51% | 94.5% | 95% | 3.92% | 94.61% | 94.54% | 95.54% | 102.38% | 4.85%
